This is an account of results in PubChem BioAssay AID179 (DTP/NCI, 2004).

Molecules are shown by their SMILES. Activity calls are given as the source filed them.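 The calls were made as follows: active = compounds giving half or more protection of infected cells from virus-caused growth loss, again on retest; inactive = the rest.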 Where a SMILES comes first, the peptide text is derived from it. The star is where a group is joined. Boc = CC(C)(C)OC(=O)*

This assay deals with CEM cells HIV-1 protection, formazan growth assay. The assay can be described thus: NCI AIDS Antiviral Assay. The settings on record: for IC50: measured here: growth of uninfected CEM cells. The gist of the method:
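Protection of CEM cells against HIV-1 measured as cell growth via soluble formazan read-out, with five concentrations tested on both infected and uninfected cells; failure to protect may reflect toxicity.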

For the compound `Cc1cccc(O)c(=O)c1`, the result was inactive.
Regarding `Sc1cc2c(c3ccccc13)Nc1ccccc1S2`, the EC50 (in general, the concentration giving half of the maximal effect) is over 200 µM and the IC50 – broadly, the concentration needed to halve the response being measured – is 123 µM.
For `CN1C(=N\S(=O)(=O)c2ccc(Cl)cc2)/C(=N/N=P(c2ccccc2)(c2ccccc2)c2ccccc2)c2ccccc21`, the EC50 was over 2.34 µM and the IC50 is over 2.34 µM.
Turning to `O=c1onc(-c2ccccc2)c2ccccc12`, the EC50 was over 162 µM and the IC50 is over 162 µM.
Regarding `Cc1cc(Cl)ccc1NC(=O)C(=O)C(C(=O)c1ccccc1)C1OC(=O)c2ccccc21` (configuration not stated), the EC50 was over 562 µM and the IC50 was 302 µM.
The corresponding values for `CSc1nn(C)cc2nc(C)nc1-2` are over 200 µM and over 200 µM.
In the same order, the values of `O=C(/C(=C(/Br)I)c1ccccc1)c1ccccc1` are over 200 µM and 27.5 µM.
With `COC(=O)C(Cc1cn(C(C)=O)c2ccccc12)P(=O)(OC)OC` (configuration not stated), the EC50 was over 200 µM and the concentration for half-maximal inhibition (IC50) is over 200 µM.
On to `COc1ccccc1NC(=S)N/N=C(/c1ccccc1)c1ccccn1`, for which the EC50 is over 0.2 µM and the IC50 worked out at 0.0813 µM.
Turning to `CC(=O)Nc1cc(S(=O)(=O)O)cc2cc(S(=O)(=O)O)c(N=Nc3ccc(C(=O)Nc4ccc5cc(S(=O)(=O)O)ccc5c4)cc3)c(O)c12`, the outcome was inactive.
As for `COc1cc(CSc2ccc(O)cc2)cc(OC)c1OC`, the EC50 is over 200 µM and the IC50 amounted to 33.1 µM.
Take `CN(C)C(=C1C(Br)=C(Br)C(Br)=C1Br)N(C)C`: the outcome was inactive.
As to `COC(=O)C12CN(C)CC(C(=O)OC)(C1=O)C(c1ccccn1)N(C)C2c1ccccn1` (configuration not stated), the EC50 is over 51.3 µM and the IC50 worked out at 36.3 µM.
`CC1(C)C(=NO)C(C)(C)C1=NO`: the result was inactive.
As for `O=C(O)Cc1cccc2c(=O)c3ccccc3oc12`, the EC50 is over 200 µM and the IC50 is over 200 µM.
As for `O=C(O)C(Cc1ccc(O)cn1)NC(=O)C(F)(F)F` (configuration not stated), the EC50 is over 200 µM and the half-inhibitory concentration (IC50) was over 200 µM.
Turning to `Cc1ccc(N=Nc2ccc(O)c(CN(C)C)c2)cc1`, the EC50 was over 200 µM and the IC50 stood at 21.9 µM.
In the same order, the values of `NCCCCC(N)C(=O)NCCNc1ccc(NCCNC(=O)C(N)CCCCN)c2c1C(=O)c1ccccc1C2=O` (configuration not stated) are over 100 µM and 3.39 µM.
In the same order, the values of `Cc1cc(-c2c(O)c3c(ccc4ccccc43)oc2=O)no1` are over 200 µM and 93.3 µM.
In the same order, the values of `CCCCOC(=O)c1ccc(NC(=O)C(C)N(CC)CC)cc1` (configuration not stated) are over 200 µM and 36.3 µM.
On to `NC(=O)NCCC[C@H](NC(=O)[C@H](CS)NC(=O)[C@@H](N)Cc1cnc[nH]1)C(=O)N[C@H](Cc1ccccc1)C(=O)N[C@@H](Cc1c[nH]c2ccccc12)C(=O)N[C@@H](Cc1c[nH]c2ccccc12)C(N)=O`, for which the EC50 is over 200 µM and the IC50 is over 200 µM.
On to `O=c1[nH]c(Nc2cccc(Cl)c2)nc2nc[nH]c12`, for which the EC50 is over 200 µM and the IC50 stood at 151 µM.
The corresponding values for `CSCC1(O)CCCCC1` are over 200 µM and over 200 µM.
The corresponding values for `C=C1CC[N+]2(CC(C)C)CCCC12` (configuration not stated) are over 501 µM and over 501 µM.
Turning to `Nc1ncnc2c1C=C(B(O)O)B(O)N2`, the EC50 was over 126 µM and the IC50 stood at 74.1 µM.
The corresponding values for `N.N.N.N.O=S(=O)([O-])[O-].[Co+3].[OH3+].[OH3+]` are over 39.8 µM and 38.9 µM.
In the same order, the values of `CCOC(=O)C1C(c2ccc(O)c(OC)c2)c2c([nH][nH]c2=O)CC1(C)O` (configuration not stated) are over 200 µM and over 200 µM.
With `CC(=O)O/N=C1\C=Cc2c(no[n+]2[O-])C1=O`, the EC50 was over 200 µM and the IC50 is 18.2 µM.
The corresponding values for `CCN(CC)c1ccc2cc(-c3csc(-c4ccc(N(C)C)cc4)n3)c(=O)oc2c1` are over 100 µM and 10 µM.
In the same order, the values of `O=CC1=CCC2c3[nH]c4ccccc4c3CCN2C1` (configuration not stated) are over 372 µM and 41.7 µM.
In the same order, the values of `CC1CN=C(N(C(=O)Nc2ccc(Cl)c(Cl)c2)c2ccccc2)S1` (configuration not stated) are over 200 µM and over 200 µM.
Consider `COC1CC(COCc2ccccc2)CC(OC)O1` (configuration not stated), for which the EC50 was over 200 µM and the IC50 was 66.1 µM.
In the same order, the values of `CC(CCc1nc2ccccc2o1)C1CCC2C3CC[C@@H]4C[C@H](O)CC[C@]4(C)C3CC[C@]12C` (some centres not stated) are over 50.1 µM and 17.4 µM.
The corresponding values for `COc1ccccc1C(O)(c1ccccc1)C(O)(c1ccccc1)c1ccccc1OC` (configuration not stated) are over 15.8 µM and over 15.8 µM.
In the same order, the values of `CCOC(=O)/C(=C/c1ccc(OC)cc1)N(CC)CC` are over 468 µM and 263 µM.
With `COc1ccc2nc3ccc(OC)cc3c(SCCCl)c2c1`, the result was inactive.
On to `[O-]c1on[n+]2c1CSC2`, for which the EC50 is over 1740 µM and the IC50 is over 1740 µM.
Consider `O=C(OCCN1CCCC12CCCCC2)C(c1ccccc1)C1CCCC1` (configuration not stated), for which the EC50 was over 200 µM and the IC50 amounted to 7.76 µM.
As for `NNC(=O)N/N=C1/C(=O)N(c2ccc(Cl)c(Cl)c2)C(=O)C(=O)C1c1nc2ccccc2o1` (configuration not stated), the outcome was inactive.
Consider `COc1c2ccoc2cc2oc(=O)ccc12`, for which the EC50 is over 58.9 µM and the IC50 was over 58.9 µM.
On to `CCC(=O)CCCC=C(c1cc(Cl)c(OC)c(CO)c1)c1cc(Cl)c(OC)c(CO)c1`, for which the EC50 is over 200 µM and the IC50 was 14.1 µM.
The corresponding values for `O=[N+]([O-])c1ccc(NS(=O)(=O)C(F)(F)F)cc1` are over 200 µM and over 200 µM.
The corresponding values for `O=c1oc2ccccc2c(O)c1Cc1ccccc1Cc1c(O)c2ccccc2oc1=O` are over 200 µM and 102 µM.
As to `CCC(c1ccc(OC)cc1)C1NC(=S)NC1=O` (configuration not stated), the EC50 is over 200 µM and the IC50 worked out at 31.6 µM.
For the compound `CCCCCCCCCC(=O)OC1CN2CC[C@H](O)C2C(O)[C@@H]1O` (some centres not stated), the outcome was inactive.
Take `CC(=O)Nc1c(C#N)c2n(c1C(=O)Nc1ccccc1)CCCC2`: the EC50 is over 200 µM and the IC50 was over 200 µM.
In the case of `COC1=C(C(=O)OC(C)(C)C)C23CCCCCCCCCCC2(C(C(=O)OC(C)(C)C)=C(OC)C3C(=O)OC(C)(C)C)C1C(=O)OC(C)(C)C` (configuration not stated), the EC50 was over 25.1 µM and the IC50 worked out at 23.4 µM.
The corresponding values for `O=C(c1ccco1)N(C(=S)N1CCN(c2ccccc2)CC1)c1ccccc1` are over 18.2 µM and over 18.2 µM.
Regarding `COC(=O)C1=CC2OC1(C)CCC2=O` (configuration not stated), the outcome was inactive.
On to `CC(C)(C)OC(=O)NC(Cc1ccccc1)C(=O)N[C@H]1c2ccsc2/C(=N/O)[C@H]1O` (some centres not stated), for which the EC50 was over 200 µM and the IC50 is 91.2 µM.
In the same order, the values of `C=CCCC(=O)N1CCC(C(=O)OCC)C1=O` (configuration not stated) are over 200 µM and over 200 µM.
In the same order, the values of `COc1ccc(/C=C2/N=C(c3ccccc3)OC2=O)cc1OC` are over 23.4 µM and over 23.4 µM.
Regarding `S=C(Nc1ccc(Br)cn1)NC12CC3CC(CC(C3)C1)C2`, the EC50 was over 200 µM and the IC50 was found to be 69.2 µM.
In the same order, the values of `COC(=O)C(Cc1c[nH]c2ccccc12)NC(=O)C(Cc1c[nH]c2ccccc12)NC(=O)C(Cc1c[nH]c2ccccc12)NC(=O)C(Cc1c[nH]c2ccccc12)NC(=O)C(Cc1c[nH]c2ccccc12)NC(=O)C(Cc1c[nH]c2ccccc12)NC(=O)OC(C)(C)C` (configuration not stated) (Boc-WWWWWW-OMe; configuration not given here) are over 100 µM and 60.3 µM.
`c1ccc(NCn2cnc3ccccc32)cc1`: the outcome was inactive.
In the case of `COc1c(O)c2c(c(O)c1C(C)C)C(=O)C(O)=C1C(C)(C)CCC[C@@]12C`, the EC50 is over 120 µM and the IC50 worked out at 16.2 µM.
For the compound `O=C1CN(Cc2cccc(Cl)c2)CC(=O)N2Cc3ccccc3CN12`, the outcome was inactive.
In the case of `CCOC(=O)c1cc(Sc2ccc(N)c(C(=O)OCC)c2)ccc1N`, the EC50 is over 200 µM and the IC50 came to 15.5 µM.
Take `COc1ccccc1-c1cc(=O)c2cc(C)c(C)c(C(=O)O)c2o1`: the outcome was inactive.
As to `CC(=O)Oc1cc(/C=C(\C#N)C(=O)NCCCCCNC(=O)/C(C#N)=C/c2cc(OC(C)=O)c(OC(C)=O)c(OC(C)=O)c2)cc(OC(C)=O)c1OC(C)=O`, the EC50 was over 200 µM and the IC50 stood at 27.5 µM.
The corresponding values for `CCN1C(=O)/C(=C2\SC(c3ccccc3)(c3ccccc3)c3ccccc32)SC1=S` are over 200 µM and over 200 µM.
In the same order, the values of `Cc1ccccc1C(=O)c1ccccc1C(=O)O` are 200 µM and 617 µM.
The corresponding values for `Cc1ccccc1NC(=O)C(=O)C(C#N)c1ccccc1C` (configuration not stated) are over 17.8 µM and over 17.8 µM.
For the compound `CON(C)C(=O)C(Cc1ccccc1)NC(=O)OC(C)(C)C` (configuration not stated), the EC50 is over 813 µM and the IC50 worked out at 155 µM.
Take `ClCCC[Si]12OCCN(CCO1)CCO2`: the result was inactive.
With `O=[N+]([O-])c1sc2ccc(Cl)cc2c1Nc1ccc(Cl)cc1`, the EC50 was over 200 µM and the IC50 is over 200 µM.
For `COc1ccc(C2=NOP(c3ccccc3)(c3ccccc3)(c3ccccc3)C2)cc1`, the EC50 was over 105 µM and the IC50 came out at 0.661 µM.
The corresponding values for `Nc1ncnc2c1ncn2CC(=O)NCCCCO` are over 200 µM and over 200 µM.
The corresponding values for `Cc1cccc(NC(=O)C(=O)C(C(=O)c2ccc3ccccc3c2)C2OC(=O)c3ccccc32)c1C` (configuration not stated) are over 28.2 µM and 26.3 µM.
In the same order, the values of `CC(/C=C/c1ccccc1)=N/NS(=O)(=O)c1ccc(N)cc1` are over 115 µM and over 115 µM.
For `CC(C)C(CCOS(=O)(=O)O)CCC(C)[C@H]1[C@@H](O)C(O)C2[C@]3(O)C[C@@H](O)C4(O)C[C@@H](O)CC[C@]4(C)C3CC[C@@]21C` (some centres not stated), the result was inactive.
In the case of `Cc1nn(C)c2c1C(=O)N(C)CC(=O)N2C`, the EC50 was over 200 µM and the IC50 was over 200 µM.
Take `COc1ccccc1N(CN1C(=O)CCC1C(=O)O)C(C)=O` (configuration not stated): the outcome was inactive.
